Data published in PubChem BioAssay AID2060342 (Molecular Pharmacology Branch, DTP, NCI, 2025).

System: 171881-019-R-J1-PDC multicell spheroid viability
Experiment: Anticancer human tumor 171881-019-R-J1-PDC patient-derived invasive breast carcinoma cell line growth inhibition [IpAb]
Conditions: for IC50: curve of first compound; for viability, T/C: stronger effect = lower value
Outline: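 Multi-cell spheroids of 60% tumour cells, 25% HUVEC and 15% MSC in ultra-low-attachment U-bottom wells, treated with agents combined with ipatasertib or abemaciclib. Half-log ranges top out near clinical Cmax, or 10 microM when Cmax is unknown.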
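Also: spheroids exposed to the agents for seven days before readout.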

Q: Which IC50 (second compound 0.1 µM) does the source give for `Cc1nc(NC(=O)N2CCCC2C(N)=O)sc1-c1ccnc(C(C)(C)C(F)(F)F)c1` (stereo not given) + CC(C)NCC(C(=O)N1CCN(c2ncnc3c2C(C)CC3O)CC1)c1ccc(Cl)cc1 here?
A: The IC50 was 0.651 µM.

Q: What about the IC50 (second compound 0.316 µM) of the same molecule?
A: The IC50 was 0.294 µM.

Q: And the IC50 (second compound 1 µM)?
A: Its IC50 is < 0.0316 µM.

Q: What about the IC50 (second compound 3.16 µM) of the same molecule?
A: Its IC50 is < 0.0316 µM.

Q: And the IC50 (second compound 10 µM)?
A: The IC50 was < 0.0316 µM.

Q: What about the viability, T/C (second compound 0.1 µM, first compound 0.0316 µM) of the same molecule?
A: Its viability, T/C is 125%.

Q: And the viability, T/C (second compound 0.1 µM, first compound 0.1 µM)?
A: The viability, T/C was 108%.

Q: And the viability, T/C (second compound 0.1 µM, first compound 0.316 µM)?
A: The viability, T/C was 68.4%.

Q: What about the viability, T/C (second compound 0.1 µM, first compound 1 µM) of the same molecule?
A: Its viability, T/C is 38.1%.

Q: And the viability, T/C (second compound 0.1 µM, first compound 3.16 µM)?
A: Its viability, T/C is 15.5%.

Q: And the viability, T/C (second compound 0.1 µM, first compound 10 µM)?
A: The viability, T/C was 1.41%.

Q: What about the viability, T/C (second compound 0.316 µM, first compound 0.0316 µM) of the same molecule?
A: Its viability, T/C is 71.5%.

Q: What about the viability, T/C (second compound 0.316 µM, first compound 0.1 µM) of the same molecule?
A: Its viability, T/C is 58.9%.

Q: And the viability, T/C (second compound 0.316 µM, first compound 0.316 µM)?
A: Its viability, T/C is 52.8%.

Q: And the viability, T/C (second compound 0.316 µM, first compound 1 µM)?
A: The viability, T/C was 18.8%.

Q: And the viability, T/C (second compound 0.316 µM, first compound 3.16 µM)?
A: Its viability, T/C is 10.7%.

Q: And the viability, T/C (second compound 0.316 µM, first compound 10 µM)?
A: The viability, T/C was 1.29%.

Q: And the viability, T/C (second compound 1 µM, first compound 0.0316 µM)?
A: The viability, T/C was 24.8%.

Q: What about the viability, T/C (second compound 1 µM, first compound 0.1 µM) of the same molecule?
A: Its viability, T/C is 24.1%.

Q: And the viability, T/C (second compound 1 µM, first compound 0.316 µM)?
A: Its viability, T/C is 21.3%.

Q: And the viability, T/C (second compound 1 µM, first compound 1 µM)?
A: The viability, T/C was 13.5%.

Q: And the viability, T/C (second compound 1 µM, first compound 3.16 µM)?
A: The viability, T/C was 4.39%.

Q: What about the viability, T/C (second compound 1 µM, first compound 10 µM) of the same molecule?
A: Its viability, T/C is 0.88%.

Q: What about the viability, T/C (second compound 3.16 µM, first compound 0.0316 µM) of the same molecule?
A: Its viability, T/C is 10.7%.

Q: What about the viability, T/C (second compound 3.16 µM, first compound 0.1 µM) of the same molecule?
A: The viability, T/C was 7.22%.

Q: What about the viability, T/C (second compound 3.16 µM, first compound 0.316 µM) of the same molecule?
A: The viability, T/C was 7.33%.

Q: And the viability, T/C (second compound 3.16 µM, first compound 1 µM)?
A: The viability, T/C was 5.54%.

Q: And the viability, T/C (second compound 3.16 µM, first compound 3.16 µM)?
A: Its viability, T/C is 3.24%.

Q: What about the viability, T/C (second compound 3.16 µM, first compound 10 µM) of the same molecule?
A: The viability, T/C was 0.74%.

Q: What about the viability, T/C (second compound 10 µM, first compound 0.0316 µM) of the same molecule?
A: Its viability, T/C is 5.48%.

Q: And the viability, T/C (second compound 10 µM, first compound 0.1 µM)?
A: Its viability, T/C is 4.17%.

Q: What about the viability, T/C (second compound 10 µM, first compound 0.316 µM) of the same molecule?
A: The viability, T/C was 4.3%.

Q: And the viability, T/C (second compound 10 µM, first compound 1 µM)?
A: The viability, T/C was 2.72%.

Q: What about the viability, T/C (second compound 10 µM, first compound 3.16 µM) of the same molecule?
A: Its viability, T/C is 1.77%.

Q: What about the viability, T/C (second compound 10 µM, first compound 10 µM) of the same molecule?
A: The viability, T/C was 0.6%.
